What was measured:
Assay type in all cases: in vivo
[1] = tested on: Echinochloa oryzacola Vasing.; assay: Test Example 1: herbicidal activity, application before weed generation in submerged conditions; details: Seventeenth Table; for A: Echinochloa oryzicola Vasing. (herbicidal effect grade): Application herbicide amount 320 g/ha
Method in brief: (§1)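 Pre-emergence water-surface application under 4 cm flooding, same day as sowing, with rice transplanted at 2.5 leaf stage. Dose given as g/ha. Plants grown at 25° C. to 30° C. and rated three weeks later on a 0 (≤5%) to 5 (≥90%) herbicidal-ratio scale.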

Scirpus juncoides [2] = assay: as above; details: Seventeenth Table; for B: Scirpus juncoides (herbicidal effect grade): Application herbicide amount 320 g/ha
Method in brief: as §1

Monochoria vaginalis [3] = assay: as above; details: Seventeenth Table; for C: Monochoria vaginalis (herbicidal effect grade): Application herbicide amount 320 g/ha
Method in brief: as §1

[4] = tested on: transplanted Oryza sativa; assay: Test Example 1: effect on crop, application before weed generation in submerged conditions; details: Seventeenth Table; for a: transplanted Oryza sativa (effect on crop grade): Application herbicide amount 320 g/ha
Method in brief: as §1

[5] = tested on: Echinochloa crus-galli var. crus-galli; assay: Test Example 3: herbicidal effect by application to foliage (Wagner pot, water depth 0.1-0.5 cm); details: Nineteenth Table; application to foliage; application herbicide amount 320 g/ha
Method in brief: (§2)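 Three weeks after spraying, each species was graded 0–5 for herbicidal ratio, 5 being 90% or more. Application: water-diluted emulsifiable concentrate at a fixed g/ha to foliage of 14-day-old greenhouse (25–30 °C) plants in alluvial soil.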

Leptochloa chinensis = assay: as above; details: Nineteenth Table; application to foliage; application herbicide amount 320 g/ha
Method in brief: as §2

Cyperus difformis = assay: as above; details: Nineteenth Table; application to foliage; application herbicide amount 320 g/ha
Method in brief: as §2

[6] = tested on: Echinochloa oryzacola Vasing.; assay: Test Example 2: herbicidal activity, application during weed generation in submerged conditions; details: Eighteenth Table; application herbicide amount 320 g/ha
Method in brief: (§3)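 Scored three weeks post-application on a 0–5 scale (5: ≥90% herbicidal ratio, almost withered; 0: ≤5%). Plants raised from mixed-sown seed in submerged alluvial soil (4 cm water), 25–30 °C greenhouse; water-diluted emulsion applied onto water surface at one- to two-leaf stage, dose in g/ha.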

Scirpus juncoides [7] = assay: as above; details: Eighteenth Table; application herbicide amount 320 g/ha
Method in brief: as §3

Monochoria vaginalis [8] = assay: as above; details: Eighteenth Table; application herbicide amount 320 g/ha
Method in brief: as §3

[9] = application herbicide amount 320 g/ha

Row | Compound | A: Echinochloa oryzicola Vasing. (herbicidal effect grade) [1] | B: Scirpus juncoides (herbicidal effect grade) (Scirpus juncoides [2]) | C: Monochoria vaginalis (herbicidal effect grade) (Monochoria vaginalis [3]) | a: transplanted Oryza sativa (effect on crop grade) [4] | H (herbicidal effect grade) [5] | D (herbicidal effect grade) (Leptochloa chinensis) | E (herbicidal effect grade) (Cyperus difformis) | A (Echinochloa oryzicola Vasing.) herbicidal ratio grade [6] | B (Scirpus juncoides) herbicidal ratio grade (Scirpus juncoides [7]) | C (Monochoria vaginalis) herbicidal ratio grade (Monochoria vaginalis [8]) | A (Echinochloa oryzicola Vasing.) herbicidal ratio grade [1, 9] | B (Scirpus juncoides) herbicidal ratio grade (Scirpus juncoides [2]; [9]) | C (Monochoria vaginalis) herbicidal ratio grade (Monochoria vaginalis [3]; [9]) | a (transplanted Oryza sativa) effect on crop grade [4, 9]
1 | COc1ccccc1-c1nnc2c(C(=O)Nc3nnnn3C)ccc(C(F)(F)F)n12 [2-045] | 5 (Herbicidal ratio of 90% or more (almost completely withered)) | 5 (Herbicidal ratio of 90% or more (almost completely withered)) | 5 (Herbicidal ratio of 90% or more (almost completely withered)) | 5 (Herbicidal ratio of 90% or more (almost completely withered)) | 5 (Herbicidal ratio of 90% or more (almost completely withered)) | 5 (Herbicidal ratio of 90% or more (almost completely withered)) | 5 (Herbicidal ratio of 90% or more (almost completely withered)) | 5 (Herbicidal ratio of 90% or more (almost completely withered)) | 3 (Herbicidal ratio of 40% or more and less than 70%) | 4 (Herbicidal ratio of 70% or more and less than 90%) | – | – | – | –
2 | Cn1nnnc1NC(=O)c1ccc(C(F)(F)F)n2c(NCC(F)(F)F)nnc12 [2-081] | 4 (Herbicidal ratio of 70% or more and less than 90%) | 3 (Herbicidal ratio of 40% or more and less than 70%) | 4 (Herbicidal ratio of 70% or more and less than 90%) | 3 (Herbicidal ratio of 40% or more and less than 70%) | 5 (Herbicidal ratio of 90% or more (almost completely withered)) | 5 (Herbicidal ratio of 90% or more (almost completely withered)) | 5 (Herbicidal ratio of 90% or more (almost completely withered)) | 2 (Herbicidal ratio of 20% or more and less than 40%) | 2 (Herbicidal ratio of 20% or more and less than 40%) | 2 (Herbicidal ratio of 20% or more and less than 40%) | – | – | – | –
3 | Cn1nnnc1NC(=O)c1ccc(C(F)(F)F)n2c(S(C)(=O)=O)nnc12 [2-037] | 5 (Herbicidal ratio of 90% or more (almost completely withered)) | 5 (Herbicidal ratio of 90% or more (almost completely withered)) | 5 (Herbicidal ratio of 90% or more (almost completely withered)) | 4 (Herbicidal ratio of 70% or more and less than 90%) | 5 (Herbicidal ratio of 90% or more (almost completely withered)) | 5 (Herbicidal ratio of 90% or more (almost completely withered)) | 5 (Herbicidal ratio of 90% or more (almost completely withered)) | 5 (Herbicidal ratio of 90% or more (almost completely withered)) | 5 (Herbicidal ratio of 90% or more (almost completely withered)) | 5 (Herbicidal ratio of 90% or more (almost completely withered)) | – | – | – | –
4 | CC(C)CSc1nnc2c(C(=O)Nc3nnnn3C)ccc(C(F)(F)F)n12 [2-071] | 5 (Herbicidal ratio of 90% or more (almost completely withered)) | 5 (Herbicidal ratio of 90% or more (almost completely withered)) | 5 (Herbicidal ratio of 90% or more (almost completely withered)) | 4 (Herbicidal ratio of 70% or more and less than 90%) | 4 (Herbicidal ratio of 70% or more and less than 90%) | 5 (Herbicidal ratio of 90% or more (almost completely withered)) | 5 (Herbicidal ratio of 90% or more (almost completely withered)) | 3 (Herbicidal ratio of 40% or more and less than 70%) | 5 (Herbicidal ratio of 90% or more (almost completely withered)) | 5 (Herbicidal ratio of 90% or more (almost completely withered)) | – | – | – | –
5 | Cn1nnnc1NC(=O)c1ccc(C(F)(F)F)n2c(N3CCSCC3)nnc12 [2-078] | 5 (Herbicidal ratio of 90% or more (almost completely withered)) | 4 (Herbicidal ratio of 70% or more and less than 90%) | 2 (Herbicidal ratio of 20% or more and less than 40%) | 4 (Herbicidal ratio of 70% or more and less than 90%) | 5 (Herbicidal ratio of 90% or more (almost completely withered)) | 5 (Herbicidal ratio of 90% or more (almost completely withered)) | 3 (Herbicidal ratio of 40% or more and less than 70%) | 4 (Herbicidal ratio of 70% or more and less than 90%) | 4 (Herbicidal ratio of 70% or more and less than 90%) | 3 (Herbicidal ratio of 40% or more and less than 70%) | – | – | – | –
6 | Cn1nnnc1NC(=O)c1ccc(C(F)(F)F)n2c([S+](C)[O-])nnc12 (stereo not drawn) [2-067] | 5 (Herbicidal ratio of 90% or more (almost completely withered)) | 4 (Herbicidal ratio of 70% or more and less than 90%) | 4 (Herbicidal ratio of 70% or more and less than 90%) | 5 (Herbicidal ratio of 90% or more (almost completely withered)) | 5 (Herbicidal ratio of 90% or more (almost completely withered)) | 5 (Herbicidal ratio of 90% or more (almost completely withered)) | 5 (Herbicidal ratio of 90% or more (almost completely withered)) | 5 (Herbicidal ratio of 90% or more (almost completely withered)) | 4 (Herbicidal ratio of 70% or more and less than 90%) | 5 (Herbicidal ratio of 90% or more (almost completely withered)) | – | – | – | –
7 | CC(C)c1nc2c(C(=O)Nc3nnnn3C)ccc(C(F)(F)F)n2n1 [7-002] | – | – | – | – | 4 (Herbicidal ratio of 70% or more and less than 90%) | 4 (Herbicidal ratio of 70% or more and less than 90%) | 4 (Herbicidal ratio of 70% or more and less than 90%) | 4 (Herbicidal ratio of 70% or more and less than 90%) | 2 (Herbicidal ratio of 20% or more and less than 40%) | 2 (Herbicidal ratio of 20% or more and less than 40%) | 3 (Herbicidal ratio of 40% or more and less than 70%) | 3 (Herbicidal ratio of 40% or more and less than 70%) | 4 (Herbicidal ratio of 70% or more and less than 90%) | 1 (Herbicidal ratio of 5% or more and less than 20%)
8 | CC(C)c1nnc2c(C(=O)Nc3nnnn3C)ccc(C(F)F)n12 [2-047] | 5 (Herbicidal ratio of 90% or more (almost completely withered)) | 4 (Herbicidal ratio of 70% or more and less than 90%) | 5 (Herbicidal ratio of 90% or more (almost completely withered)) | 4 (Herbicidal ratio of 70% or more and less than 90%) | 4 (Herbicidal ratio of 70% or more and less than 90%) | 5 (Herbicidal ratio of 90% or more (almost completely withered)) | 5 (Herbicidal ratio of 90% or more (almost completely withered)) | 3 (Herbicidal ratio of 40% or more and less than 70%) | 5 (Herbicidal ratio of 90% or more (almost completely withered)) | 4 (Herbicidal ratio of 70% or more and less than 90%) | – | – | – | –
9 | CCC[S+]([O-])c1nnc2c(C(=O)Nc3nnnn3C)ccc(C(F)(F)F)n12 (stereo not drawn) [2-069] | 5 (Herbicidal ratio of 90% or more (almost completely withered)) | 5 (Herbicidal ratio of 90% or more (almost completely withered)) | 5 (Herbicidal ratio of 90% or more (almost completely withered)) | 5 (Herbicidal ratio of 90% or more (almost completely withered)) | 5 (Herbicidal ratio of 90% or more (almost completely withered)) | 5 (Herbicidal ratio of 90% or more (almost completely withered)) | 5 (Herbicidal ratio of 90% or more (almost completely withered)) | 5 (Herbicidal ratio of 90% or more (almost completely withered)) | 5 (Herbicidal ratio of 90% or more (almost completely withered)) | 5 (Herbicidal ratio of 90% or more (almost completely withered)) | – | – | – | –
